According to PubChem BioAssay AID1963851 (Molecular Pharmacology Branch, DTP, NCI, 2024):

Test system: 188146-221-R-J1-PDC complex spheroid viability
Experiment: Anticancer human tumor 188146-221-R-J1-PDC patient-derived colon adenocarcinoma cell line growth inhibition [POLQ]
Details: for IC50: curve of first compound; for viability, T/C: stronger effect = lower value
How it was run: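 Complex spheroid viability model combining PDC tumour cells with endothelial (HUVEC) and MSC stromal cells. Novobiocin, ART-558 or RP6685 were tested singly and in combination with standard and investigational anticancer drugs. Each was titrated in half-log steps from near clinical Cmax, or from 10 microM where Cmax was unknown.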

[1] = second compound 0.0316 µM, first compound 0.0316 µM
[2] = second compound 0.0316 µM, first compound 0.1 µM
[3] = second compound 0.0316 µM, first compound 0.316 µM
[4] = second compound 0.0316 µM, first compound 1 µM
[5] = second compound 0.0316 µM, first compound 3.16 µM
[6] = second compound 0.0316 µM, first compound 10 µM
[7] = second compound 0.1 µM, first compound 0.0316 µM
[8] = second compound 0.1 µM, first compound 0.1 µM
[9] = second compound 0.1 µM, first compound 0.316 µM
[10] = second compound 0.1 µM, first compound 1 µM
[11] = second compound 0.1 µM, first compound 3.16 µM
[12] = second compound 0.1 µM, first compound 10 µM
[13] = second compound 0.316 µM, first compound 0.0316 µM
[14] = second compound 0.316 µM, first compound 0.1 µM
[15] = second compound 0.316 µM, first compound 0.316 µM
[16] = second compound 0.316 µM, first compound 1 µM
[17] = second compound 0.316 µM, first compound 3.16 µM
[18] = second compound 0.316 µM, first compound 10 µM
[19] = second compound 1 µM, first compound 0.0316 µM
[20] = second compound 1 µM, first compound 0.1 µM
[21] = second compound 1 µM, first compound 0.316 µM
[22] = second compound 1 µM, first compound 1 µM
[23] = second compound 1 µM, first compound 3.16 µM
[24] = second compound 1 µM, first compound 10 µM
[25] = second compound 3.16 µM, first compound 0.0316 µM
[26] = second compound 3.16 µM, first compound 0.1 µM
[27] = second compound 3.16 µM, first compound 0.316 µM
[28] = second compound 3.16 µM, first compound 1 µM
[29] = second compound 3.16 µM, first compound 3.16 µM
[30] = second compound 3.16 µM, first compound 10 µM
[31] = second compound 10 µM, first compound 0.0316 µM
[32] = second compound 10 µM, first compound 0.1 µM
[33] = second compound 10 µM, first compound 0.316 µM
[34] = second compound 10 µM, first compound 1 µM
[35] = second compound 10 µM, first compound 3.16 µM
[36] = second compound 10 µM, first compound 10 µM
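Also: spheroids exposed to compounds for seven days.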
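For viability, T/C in this document: 100% = DMSO vehicle control viability.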

CC1COCCN1c1cc(-c2ccnn2C)c2ccnc(-c3ccn[nH]3)c2n1 (stereo not drawn) + COC1C(OC(N)=O)C(O)C(Oc2ccc3c(O)c(NC(=O)c4ccc(O)c(CC=C(C)C)c4)c(=O)oc3c2C)OC1(C)C
IC50 (second compound 0.0316 µM): 207 nM
IC50 (second compound 0.1 µM): 175 nM
IC50 (second compound 0.316 µM): 193 nM
IC50 (second compound 1 µM): 252 nM
IC50 (second compound 3.16 µM): 204 nM
IC50 (second compound 10 µM): 159 nM
viability, T/C [1]: 81.5%
viability, T/C [2]: 67.3%
viability, T/C [3]: 39.3%
viability, T/C [4]: 23.3%
viability, T/C [5]: 16.3%
viability, T/C [6]: 14%
viability, T/C [7]: 94.2%
viability, T/C [8]: 57.8%
viability, T/C [9]: 44.5%
viability, T/C [10]: 21.3%
viability, T/C [11]: 18.1%
viability, T/C [12]: 14.1%
viability, T/C [13]: 78.2%
viability, T/C [14]: 66.3%
viability, T/C [15]: 37.2%
viability, T/C [16]: 22.4%
viability, T/C [17]: 17.2%
viability, T/C [18]: 13.3%
viability, T/C [19]: 83.3%
viability, T/C [20]: 74.2%
viability, T/C [21]: 43.3%
viability, T/C [22]: 22.9%
viability, T/C [23]: 16.9%
viability, T/C [24]: 13.2%
viability, T/C [25]: 85.5%
viability, T/C [26]: 61.6%
viability, T/C [27]: 46.2%
viability, T/C [28]: 19.4%
viability, T/C [29]: 18.3%
viability, T/C [30]: 14.1%
viability, T/C [31]: 79.9%
viability, T/C [32]: 54.5%
viability, T/C [33]: 44.6%
viability, T/C [34]: 19.9%
viability, T/C [35]: 16.7%
viability, T/C [36]: 17%

O=c1[nH]cc(F)c(=O)[nH]1 + Nc1ccc(C#CCN(C(=O)Cc2ncc(C(F)(F)F)cc2C(F)(F)F)c2ccc(F)cc2)nn1
IC50 (second compound 0.0316 µM): 2920 nM
IC50 (second compound 0.1 µM): 2730 nM
IC50 (second compound 0.316 µM): 2140 nM
IC50 (second compound 1 µM): 3660 nM
IC50 (second compound 3.16 µM): 1620 nM
IC50 (second compound 10 µM): 1990 nM
viability, T/C [1]: 116%
viability, T/C [2]: 111%
viability, T/C [3]: 83.8%
viability, T/C [4]: 54.1%
viability, T/C [5]: 46.6%
viability, T/C [6]: 52.4%
viability, T/C [7]: 121%
viability, T/C [8]: 105%
viability, T/C [9]: 72.6%
viability, T/C [10]: 58%
viability, T/C [11]: 50.3%
viability, T/C [12]: 45.5%
viability, T/C [13]: 113%
viability, T/C [14]: 103%
viability, T/C [15]: 79.2%
viability, T/C [16]: 55.2%
viability, T/C [17]: 48.9%
viability, T/C [18]: 43.2%
viability, T/C [19]: 100%
viability, T/C [20]: 82.4%
viability, T/C [21]: 74.5%
viability, T/C [22]: 58.6%
viability, T/C [23]: 50.1%
viability, T/C [24]: 44.9%
viability, T/C [25]: 102%
viability, T/C [26]: 91.7%
viability, T/C [27]: 74%
viability, T/C [28]: 49.9%
viability, T/C [29]: 46.6%
viability, T/C [30]: 47.5%
viability, T/C [31]: 123%
viability, T/C [32]: 112%
viability, T/C [33]: 85.7%
viability, T/C [34]: 54.6%
viability, T/C [35]: 47.1%
viability, T/C [36]: 43.7%

C=CC(=O)N1CCN(c2nc(=O)n(-c3c(C)ccnc3C(C)C)c3nc(-c4c(O)cccc4F)c(F)cc23)C(C)C1 (stereo not drawn) + Cc1cccc(N(C)C(=O)C2C(O)CCN2c2nc(C)cc(C(F)(F)F)c2C#N)c1
IC50 (second compound 0.0316 µM): > 10000 nM
IC50 (second compound 0.1 µM): > 10000 nM
IC50 (second compound 0.316 µM): > 10000 nM
IC50 (second compound 1 µM): > 10000 nM
IC50 (second compound 3.16 µM): > 10000 nM
IC50 (second compound 10 µM): > 10000 nM
viability, T/C [1]: 104%
viability, T/C [2]: 103%
viability, T/C [3]: 93%
viability, T/C [4]: 107%
viability, T/C [5]: 97%
viability, T/C [6]: 83.8%
viability, T/C [7]: 108%
viability, T/C [8]: 105%
viability, T/C [9]: 91.9%
viability, T/C [10]: 103%
viability, T/C [11]: 92.8%
viability, T/C [12]: 89%
viability, T/C [13]: 101%
viability, T/C [14]: 105%
viability, T/C [15]: 103%
viability, T/C [16]: 95.5%
viability, T/C [17]: 85.9%
viability, T/C [18]: 81.5%
viability, T/C [19]: 95.6%
viability, T/C [20]: 107%
viability, T/C [21]: 102%
viability, T/C [22]: 104%
viability, T/C [23]: 84.7%
viability, T/C [24]: 73.3%
viability, T/C [25]: 98.7%
viability, T/C [26]: 104%
viability, T/C [27]: 97.3%
viability, T/C [28]: 100%
viability, T/C [29]: 94.6%
viability, T/C [30]: 83.4%
viability, T/C [31]: 100%
viability, T/C [32]: 82.3%
viability, T/C [33]: 91.8%
viability, T/C [34]: 84.8%
viability, T/C [35]: 92.6%
viability, T/C [36]: 77.2%

CC1COCCN1c1cc(C2(S(C)(=N)=O)CC2)nc(-c2ccnc3[nH]ccc23)n1 (stereo not drawn) + Cc1cccc(N(C)C(=O)C2C(O)CCN2c2nc(C)cc(C(F)(F)F)c2C#N)c1
IC50 (second compound 0.0316 µM): 4900 nM
IC50 (second compound 0.1 µM): 4650 nM
IC50 (second compound 0.316 µM): 5330 nM
IC50 (second compound 1 µM): 4360 nM
IC50 (second compound 3.16 µM): 4900 nM
IC50 (second compound 10 µM): 3210 nM
viability, T/C [1]: 108%
viability, T/C [2]: 92.9%
viability, T/C [3]: 97.6%
viability, T/C [4]: 95.7%
viability, T/C [5]: 65.2%
viability, T/C [6]: 25.1%
viability, T/C [7]: 114%
viability, T/C [8]: 98.3%
viability, T/C [9]: 93.9%
viability, T/C [10]: 89.1%
viability, T/C [11]: 58.7%
viability, T/C [12]: 27.7%
viability, T/C [13]: 98.4%
viability, T/C [14]: 96.9%
viability, T/C [15]: 97.9%
viability, T/C [16]: 90.2%
viability, T/C [17]: 68.5%
viability, T/C [18]: 27.8%
viability, T/C [19]: 101%
viability, T/C [20]: 91%
viability, T/C [21]: 95.7%
viability, T/C [22]: 91.4%
viability, T/C [23]: 58.2%
viability, T/C [24]: 28.9%
viability, T/C [25]: 88.5%
viability, T/C [26]: 103%
viability, T/C [27]: 81.4%
viability, T/C [28]: 83.8%
viability, T/C [29]: 63.8%
viability, T/C [30]: 27.2%
viability, T/C [31]: 90%
viability, T/C [32]: 78.5%
viability, T/C [33]: 88.8%
viability, T/C [34]: 62%
viability, T/C [35]: 53.2%
viability, T/C [36]: 19.4%
